Experimental data reported in patent publication US3982931A, “N,N-di-sec.butyl-benzamide herbicides” (priority 1967, dated 1976).

Legend:
infesting gramineae = experiment: herbicidal action on infesting plants (general statements); format: in vivo; details: in words
Description: (§1) It is understood that all the data given herein shall have no limiting character on the object of this invention.

useful plants = experiment: phytotoxic action on useful plants (general statements); format: in vivo, useful gramineae; details: in words
Description: as §1

avena sativa (oats) [1] = experiment: activity on agrarian species, soil treatment one day after sowing; format: in vivo, Avena sativa L.
Description: (§2) The infesting species and the agrarian species have been indicated in Table 1 by letters, as follows:
(§3) Method of evaluation of the results (of tests):
(§4) 0 = no activity and no difference with respect to the control;
(§5) 1 slight differences with respect to the control;
(§6) 3 = considerable activity with damages that definitely impair the further development of most of the small plants; an activity degree already useful for practical purposes;
(§7) 4 = maximum of activity with lack of germination or total containment of the small plants in the emerging stage.
(§8) In the case of an intermediate activity between two classes of the scale, both values are recorded with the one which corresponds to the preeminent activity preceding.
(§9) TABLE 2 reports the activity data of other compounds that fall within the class which is the object of this invention.
(§10) TABLE 3 reports data on the herbicidal activity against infesting herbs, while TABLE 4 reports data concerning the activity on useful species of agricultural cultivations. These tables employ the criterion explained previously. The product was spread on the soil one day after sowing, in quantities of 1, 3, 6, 8, 10, 12 and 14 kg/ha.

[2] = system: phaseolus vulgaris (bean); experiment: as above; format: in vivo, Phaseolus vulgaris L.
Description: as §2
I = phaseolus vulgaris (bean)
as §3, §4, §5, §6, §7, §8, §9, §10

pisum sativum L. (pea) = experiment: as above; format: in vivo
Description: as §2
L = pisum sativum L. (pea)
as §3, §4, §5, §6, §7, §8, §9
TABLE 3 reports data on the herbicidal activity against infesting herbs, while TABLE 4 reports data concerning the activity on useful species of agricultural cultivations. These tables employ the criterion explained previously. […]

[3] = system: beta vulgaris L. (sugar-beet); experiment: as above; format: in vivo
Description: as §2
H = beta vulgaris L. (sugar-beet)
as §3, §4, §5, §6, §7, §8, §9, §10

oryza sativa L. (rice) = experiment: as above; format: in vivo
Description: as §2
P = oryza sativa L. (rice)
as §3, §4, §5, §6, §7, §8, §9, §10

[4] = system: echinocloa crus-galli R.S.; experiment: herbicidal activity, soil treatment one day after sowing; format: in vivo
zea mais L. (corn) = experiment: activity on agrarian species, soil treatment one day after sowing; format: in vivo
Description: as §2, §3, §4, §5, §6, §7, §8, §9, §10

setaria glauca L. = experiment: herbicidal activity, soil treatment one day after sowing; format: in vivo
chenopodium album L. = experiment: as above; format: in vivo
[5] = system: triticum vulgare L. (wheat); experiment: activity on agrarian species, soil treatment one day after sowing; format: in vivo
Description: as §2
N = triticum vulgare L. (wheat)
as §3, §4, §5, §6, §7, §8, §9, §10

artemisia vulgaris L. = experiment: herbicidal activity, soil treatment one day after sowing; format: in vivo
[6] = system: amaranthus retroflexus L.; experiment: as above; format: in vivo
solanum Lycopersicum L. = experiment: activity on agrarian species, soil treatment one day after sowing; format: in vivo
Description: as §2
M = solanum Lycopersicum L.
as §3, §4, §5, §6, §7
In the case of an intermediate activity between two classes of the scale, both values are recorded with the one which corresponds to the preeminent activity preceding. […]

vicia sativa L. = experiment: herbicidal activity, soil treatment one day after sowing; format: in vivo
Procedure, shortened: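 Pre-emergence soil treatment one day after sowing; activity scored visually on a […] scale against untreated control, from slight difference (1) to no germination or total containment at emergence (4); intermediate activity recorded as both classes, preeminent value first.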

rice = experiment: Example 1 pot test, submerged rice-field earth, granular composition; format: in vivo; details: maximum dose; doses 0 - 8 kg/ha
Description: (§11) A series of pots were prepared filled with rice-field earth. Into these were then sown Echinocloa crus-galli and rice. The earth was then submerged by 10 cm of water and immediately thereafter were uniformly spread on the submerged soil granular compositions, some of them containing 2% of PA 234 and 98% of phosphorite, some others 5% of PA 234 and 95% of bentonite, in doses graduated from 0 - 8 kg of active principle per hectar. The test pots were kept in a conditioned environment at controlled temperature and photo-period.

Echinocloa crus-galli = experiment: as above; format: in vivo; details: 3 kg/ha of active principle
Description: as §11

avena sativa (oats) [7] = experiment: activity on agrarian species, soil treatment one day after sowing; format: in vivo, Avena sativa L.; remark: listed apart in the source

`CCCN(CCC)C(=O)c1cc(Cl)cc(Cl)c1` [3,5-dichloro-N,N-di-n.propyl-benzamide] was tested. Which herbicidal action (infesting gramineae) did it give?
The herbicidal action was “very active”.

And the “phytotoxic action on useful plants” value (useful plants)?
Its value is “phytotoxic action of considerable intensity”.

What does the source list for `CCC(C)N(C(=O)c1c(Cl)cccc1Cl)C(C)CC` (stereo not drawn) [PA227, 2,6-dichloro-N,N-di-sec.butyl-benzamide]?
activity on G, 0-4 scale (avena sativa (oats) [1]; in vivo): 0; activity on I, 0-4 scale ([2]; in vivo): 0; activity on L, 0-4 scale (pisum sativum L. (pea); in vivo): 0; activity on H, 0-4 scale ([3]; in vivo): 2; activity on P, 0-4 scale (oryza sativa L. (rice); in vivo): 0; activity on D, 0-4 scale ([4]; 2 kg/ha): 2; activity on D, 0-4 scale ([4]; 4 kg/ha): 3; activity on D, 0-4 scale ([4]; 6 kg/ha): 4; activity on O, 0-4 scale (zea mais L. (corn); in vivo): 0; activity on E, 0-4 scale (setaria glauca L.; 2 kg/ha): 2; activity on E, 0-4 scale (setaria glauca L.; 4 kg/ha): 3; activity on E, 0-4 scale (setaria glauca L.; 6 kg/ha): 4; activity on C, 0-4 scale (chenopodium album L.; 2 kg/ha): 1; activity on C, 0-4 scale (chenopodium album L.; 4 kg/ha): 2; activity on C, 0-4 scale (chenopodium album L.; 6 kg/ha): 3-4; activity on N, 0-4 scale ([5]; in vivo): 0; activity on B, 0-4 scale (artemisia vulgaris L.; 2 kg/ha): 0-1; activity on B, 0-4 scale (artemisia vulgaris L.; 4 kg/ha): 1-2; activity on B, 0-4 scale (artemisia vulgaris L.; 6 kg/ha): 2; activity on A, 0-4 scale ([6]; 2 kg/ha): 1-2; activity on A, 0-4 scale ([6]; 4 kg/ha): 3; activity on M, 0-4 scale (solanum Lycopersicum L.; in vivo): 1; activity on F, 0-4 scale (vicia sativa L.; 2 kg/ha): 0; activity on F, 0-4 scale (vicia sativa L.; 4 kg/ha): 0; activity on F, 0-4 scale (vicia sativa L.; 6 kg/ha): 0

With `CCC(C)N(C(=O)c1cc(Cl)cc(Cl)c1)C(C)CC` (stereo not drawn) [PA234, 3,5-dichloro-N,N-di-sec.butyl-benzamide] as the compound, how does the damage to rice (rice) read?
Its damage to rice is “remained undamaged”.

And the “growth of Echinocloa crus-galli” value (Echinocloa crus-galli)?
Its value is “totally inhibited”.

And the “activity on G, 0-4 scale” value (avena sativa (oats) [1]; 6 kg/ha)?
The value was 0.

What about the “activity on I, 0-4 scale” value ([2]; 2 kg/ha) of the same compound?
Its value is 0.

What about the “activity on I, 0-4 scale” value ([2]; 4 kg/ha) of the same compound?
Its value is 0.

And the “activity on I, 0-4 scale” value ([2]; 6 kg/ha)?
Its value is 0.

What about the “activity on L, 0-4 scale” value (pisum sativum L. (pea); 2 kg/ha) of the same compound?
The value was 0.

And the “activity on L, 0-4 scale” value (pisum sativum L. (pea); 4 kg/ha)?
The value was 0.

And the “activity on L, 0-4 scale” value (pisum sativum L. (pea); 6 kg/ha)?
The value was 0.

What about the “activity on H, 0-4 scale” value ([3]; 2 kg/ha) of the same compound?
Its value is 0.

And the “activity on H, 0-4 scale” value ([3]; 4 kg/ha)?
Its value is 1.

And the “activity on H, 0-4 scale” value ([3]; 6 kg/ha)?
The value was 1.

And the “activity on P, 0-4 scale” value (oryza sativa L. (rice); 6 kg/ha)?
The value was 0.

And the “activity on D, 0-4 scale” value ([4]; 0-5 kg/ha (so in the source))?
Its value is 2-1.

And the “activity on D, 0-4 scale” value ([4]; 0.5 kg/ha)?
Its value is 2-1.

What about the “activity on D, 0-4 scale” value ([4]; 1 kg/ha) of the same compound?
The value was 2-3.

And the “activity on D, 0-4 scale” value ([4]; 2 kg/ha)?
Its value is 4.

What about the “activity on D, 0-4 scale” value ([4]; 4 kg/ha) of the same compound?
Its value is 4.

What about the “activity on D, 0-4 scale” value ([4]; 6 kg/ha) of the same compound?
Its value is 4.

What about the “activity on O, 0-4 scale” value (zea mais L. (corn); 2 kg/ha) of the same compound?
The value was 0.

And the “activity on O, 0-4 scale” value (zea mais L. (corn); 4 kg/ha)?
The value was 0.

And the “activity on O, 0-4 scale” value (zea mais L. (corn); 6 kg/ha)?
Its value is 0.

What about the “activity on E, 0-4 scale” value (setaria glauca L.; 0-5 kg/ha (so in the source)) of the same compound?
The value was 3-2.

And the “activity on E, 0-4 scale” value (setaria glauca L.; 0.5 kg/ha)?
The value was 3-2.

And the “activity on E, 0-4 scale” value (setaria glauca L.; 1 kg/ha)?
The value was 3-4.

What about the “activity on E, 0-4 scale” value (setaria glauca L.; 2 kg/ha) of the same compound?
Its value is 4.

What about the “activity on E, 0-4 scale” value (setaria glauca L.; 4 kg/ha) of the same compound?
The value was 4.

What about the “activity on E, 0-4 scale” value (setaria glauca L.; 6 kg/ha) of the same compound?
Its value is 4.

And the “activity on C, 0-4 scale” value (chenopodium album L.; 2 kg/ha)?
Its value is 1.

And the “activity on C, 0-4 scale” value (chenopodium album L.; 4 kg/ha)?
Its value is 2-1.

And the “activity on C, 0-4 scale” value (chenopodium album L.; 6 kg/ha)?
The value was 2.

What about the “activity on N, 0-4 scale” value ([5]; 2 kg/ha) of the same compound?
Its value is 0.

What about the “activity on N, 0-4 scale” value ([5]; 4 kg/ha) of the same compound?
Its value is 0.

What about the “activity on N, 0-4 scale” value ([5]; 6 kg/ha) of the same compound?
The value was 0.

What about the “activity on B, 0-4 scale” value (artemisia vulgaris L.; 2 kg/ha) of the same compound?
Its value is 0-1.

And the “activity on B, 0-4 scale” value (artemisia vulgaris L.; 4 kg/ha)?
Its value is 1.

And the “activity on B, 0-4 scale” value (artemisia vulgaris L.; 6 kg/ha)?
Its value is 1-2.

What about the “activity on G, 0-4 scale” value (avena sativa (oats) [7]; 2 kg/ha) of the same compound?
Its value is 0.

What about the “activity on G, 0-4 scale” value (avena sativa (oats) [7]; 4 kg/ha) of the same compound?
Its value is 0.

And the “activity on A, 0-4 scale” value ([6]; 2 kg/ha)?
Its value is 1-2.

And the “activity on A, 0-4 scale” value ([6]; 4 kg/ha)?
The value was 2.

And the “activity on A, 0-4 scale” value ([6]; 6 kg/ha)?
The value was 2-3.

What about the “activity on M, 0-4 scale” value (solanum Lycopersicum L.; 2 kg/ha) of the same compound?
Its value is 1.

What about the “activity on M, 0-4 scale” value (solanum Lycopersicum L.; 4 kg/ha) of the same compound?
Its value is 1.

And the “activity on M, 0-4 scale” value (solanum Lycopersicum L.; 6 kg/ha)?
The value was 1.

And the “activity on F, 0-4 scale” value (vicia sativa L.; 2 kg/ha)?
The value was 0.

And the “activity on F, 0-4 scale” value (vicia sativa L.; 4 kg/ha)?
Its value is 0.

What about the “activity on F, 0-4 scale” value (vicia sativa L.; 6 kg/ha) of the same compound?
The value was 0.
